Measurements published in patent US6592894B1, “Hydrogel-isolated cochleate formulations, process of preparation and their use for the delivery of biologically relevant molecules” (BioDelivery Sciences International, Inc., priority 1999, dated 2003).

System: Candida albicans
Assay: Fungicidal effect, ratio of colony forming units to total cell number
Assay type: cell-based
Settings: 0.625 μg AmB/ml, after 30 hours of incubation
Procedure: Aliquots of yeast cells (50 μl) were removed from the 96 well plates and serially diluted (up to 1:10000 for plating onto agar plates) and counted using a hemocytometer. Fifty μl of the diluted yeast cells were plated onto YPD agar plates and incubated for 24 hours at 37° C. Yeast colonies were counted using a BioRad Fluor-S Multi-Imager equipped with Quanitity One™ software.
Yeast cells treated with AmBisome, AmB/DMSO and AmB/cochleates (0.625 μg AmB/ml) were examined for the ratio of colony forming units to total cell number after 30 hours of incubation. […] The AmBisome was not as effective, resulting in 52% yeast viability (FIG. 7).

## C[C@@H]1[C@H](O)[C@@H](C)/C=C/C=C/C=C/C=C/C=C/C=C/C=C/[C@H](O[C@@H]2O[C@H](C)[C@@H](O)[C@H](N)[C@@H]2O)C[C@@H]2O[C@](O)(C[C@@H](O)C[C@@H](O)[C@H](O)CC[C@@H](O)C[C@@H](O)CC(=O)O[C@H]1C)C[C@H](O)[C@H]2C(=O)O [AmB/DMSO, Amphotericin B]
  yeast viability (ratio of colony forming units to total cell number): 12%
